# Measured values published in paper PMC4052451 (Journal of medicinal chemistry, 2013).
# *: point of attachment. Dnp = O=[N+]([O-])c1ccc(*)c([N+](=O)[O-])c1; Mca = COc1ccc2c(CC(=O)*)cc(=O)oc2c1
# Legend:
# N-domain of sACE-1 = N-domain of sACE-1 (Homo sapiens, UniProt P12821); assay: Reversible inhibition of the N-domain of sACE-1, fluorogenic substrate Abz-SDK; type: biochemical; conditions: Abz-SDK(Dnp)P-OH 7.5, 10, 15 µM; absence of co-reactants
# C-domain of sACE-1 = C-domain of sACE-1 (Homo sapiens, UniProt P12821); assay: Reversible inhibition of the C-domain of sACE-1, fluorogenic substrate Abz-LFK; type: biochemical; conditions: Abz-LFK(Dnp)-OH 7.5, 10, 15 µM; absence of co-reactants
# [1] = ref [15],[24]; cited from earlier work
# ACE = conditions: ref [38]; cited from earlier work
# [2] = in SHR; ref [38]; cited from earlier work
# sACE-1 = sACE-1 (Homo sapiens, UniProt P12821); conditions: generic substrate of previous study; ref [30]; cited from earlier work
# Chain of sACE-1 (P12821 30-1261): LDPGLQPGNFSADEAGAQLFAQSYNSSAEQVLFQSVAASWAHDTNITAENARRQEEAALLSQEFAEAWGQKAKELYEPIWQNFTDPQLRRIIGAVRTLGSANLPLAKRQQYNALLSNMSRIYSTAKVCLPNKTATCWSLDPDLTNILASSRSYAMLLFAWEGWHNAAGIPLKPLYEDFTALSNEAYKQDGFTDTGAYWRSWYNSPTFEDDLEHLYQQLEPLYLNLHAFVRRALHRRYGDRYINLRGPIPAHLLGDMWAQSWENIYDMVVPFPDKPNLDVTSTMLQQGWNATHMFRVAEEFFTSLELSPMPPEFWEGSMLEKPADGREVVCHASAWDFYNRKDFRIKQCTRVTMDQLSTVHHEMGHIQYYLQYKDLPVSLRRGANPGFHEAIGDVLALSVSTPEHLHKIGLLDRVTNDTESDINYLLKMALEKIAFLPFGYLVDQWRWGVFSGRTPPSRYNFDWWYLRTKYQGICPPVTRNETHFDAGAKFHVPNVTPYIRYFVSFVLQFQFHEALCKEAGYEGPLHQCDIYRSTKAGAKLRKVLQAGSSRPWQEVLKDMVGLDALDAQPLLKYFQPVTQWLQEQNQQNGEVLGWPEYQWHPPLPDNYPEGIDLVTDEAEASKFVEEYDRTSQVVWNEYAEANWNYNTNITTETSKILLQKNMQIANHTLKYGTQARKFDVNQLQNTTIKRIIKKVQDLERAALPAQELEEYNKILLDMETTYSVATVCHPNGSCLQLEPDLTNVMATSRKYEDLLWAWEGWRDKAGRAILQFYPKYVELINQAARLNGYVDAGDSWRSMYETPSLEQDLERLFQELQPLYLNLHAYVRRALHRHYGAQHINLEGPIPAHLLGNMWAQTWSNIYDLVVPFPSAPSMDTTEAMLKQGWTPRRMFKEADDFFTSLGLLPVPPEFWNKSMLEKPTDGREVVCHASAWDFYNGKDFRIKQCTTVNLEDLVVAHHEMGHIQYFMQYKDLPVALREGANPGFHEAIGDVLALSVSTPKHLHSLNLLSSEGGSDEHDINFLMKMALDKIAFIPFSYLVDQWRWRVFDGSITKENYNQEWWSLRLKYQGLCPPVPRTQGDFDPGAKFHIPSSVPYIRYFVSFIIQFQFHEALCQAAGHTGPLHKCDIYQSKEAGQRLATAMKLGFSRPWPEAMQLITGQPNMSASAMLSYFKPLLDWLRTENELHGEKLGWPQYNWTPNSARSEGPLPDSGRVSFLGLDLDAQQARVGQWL
# Chain of C-domain of sACE-1 (P12821 30-1261): as above
# Chain of N-domain of sACE-1 (P12821 30-1261): as above
molecule,measurement,setting,value
NCCCC[C@H](N[C@@H](CCc1ccccc1)C(=O)O)C(=O)N1CCC[C@H]1C(=O)O [Lisinopril],Inhibition mode by Dixon plot (N-domain),N-domain of sACE-1,competitive inhibitors
same,Inhibition mode by Dixon plot (C-domain),C-domain of sACE-1,competitive inhibitors
Ac-Asp-(L)Pheψ(PO2-CH2)(L)Ala-Ala-NH2 [RXP407],Effect on blood pressure regulation,[1],no effect on blood pressure regulation
Ile-Pro-Pro,IC50,ACE,5 µM
same,lowers blood pressure,[2],≤ 30 mmHg
Mca-RPPGFSAFK(Dnp)-OH (SMILES COc1ccc2c(CC(=O)N[C@@H](CCCNC(=N)N)C(=O)N3CCC[C@H]3C(=O)N3CCC[C@H]3C(=O)NCC(=O)N[C@@H](Cc3ccccc3)C(=O)N[C@@H](CO)C(=O)N[C@@H](C)C(=O)N[C@@H](Cc3ccccc3)C(=O)N[C@@H](CCCCNc3ccc([N+](=O)[O-])cc3[N+](=O)[O-])C(=O)O)cc(=O)oc2c1),Km,sACE-1,4.5 ± 0.6 µM
same,kcat,sACE-1,20.33 ± 0.833 s⁻¹
